The test system of the assay is blood collected from volunteers. Kind of assay: Measurement of whole blood clotting time (Sonoclot, ACT ONSET value). Also noted: species or system human. On the procedure: To a cuvette (NON-ACTIVATED CLOTTING TEST KIT), 18 μL of physiological saline was placed, and 14.8 μL of calcicol was added thereto, followed by further adding 342 μL of blood supplemented with citric acid. Thereafter, the measurement using Sonoclot blood coagulation/platelet function analyzer (IMI Co., Ltd.) was carried out to define the obtained ACT ONSET value as whole blood clotting time.

Structures are written as SMILES.

Turning to `CC1CNc2c(cccc2S(=O)(=O)N[C@@H](CCCNC(=N)N)C(=O)N2CC[C@@H](C)C[C@@H]2C(=O)O)C1` (mixture of isomers) [argatroban], the “whole blood clotting time” value is, setting by setting: (2 μM argatroban solution) 531 s; (10 μM argatroban solution) 746 s; (20 μM argatroban solution) 849 s.
